Experimental data from patent US20230123334A1, “AMINO LIPID COMPOUND, PREPARATION METHOD THEREFOR, AND APPLICATION THEREOF” (SHENZHEN SHENXIN BIOTECHNOLOGY CO., LTD., priority 2020, published 2023).

Experiments:
[1] = test system: HEK293 cells; assay: Preliminary screening as DNA vectors, GFP transfection of HEK293 cells; format: cell-based; conditions: HEK293 cells; lipid/DOPE liposome with 75 ng plasmid DNA (psin-EGFP-IRES-Puro); number of cells expressing GFP divided by total number of nuclei (Hoechst)
How it was run: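 HEK293 cells in DMEM/10% FBS transfected with 75 ng EGFP plasmid per well complexed with amino lipid/DOPE liposomes in pH 5.6 sodium acetate. Hoechst nuclear stain added 20-24 h post-transfection, then cells cultured another 20-24 h. Confocal imaging gives GFP-positive cells as % of total nuclei.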

[2] = test system: HEK293 cells; assay: Preliminary screening as mRNA vectors, EGFP mRNA transfection of HEK293 cells; format: cell-based; conditions: HEK293 cells, 96-well plates, EGFP mRNA 50 ng per well; percentage of GFP fluorescent cells relative to total number of cells (Hoechst)
How it was run: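 HEK293 cells in DMEM plus 10% FBS transfected in 96-well format with 50 ng EGFP mRNA per well; Lipofectamine2000 served as positive control. Read-out is the percentage of GFP-fluorescent cells among total cells, counted by Hoechst nuclear stain.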

Structure (SMILES) | Absolute DNA transfection efficiency in HEK293 cells [1] | Absolute mRNA transfection efficiency in HEK293 cells [2]
CCCCCCCCCCCCCCCCCCNc1nc(NCCCCCCCC)nc(NCCCN(C)C)n1 [Compound N8N18D6] | 2.2% | 4.1%
CCCCCCCCCCCCCCCCCCSc1nc(NCCCN(C)C)nc(SCCCCCCCCCCCCCCC)n1 [Compound S15S18D6] | 1.0% | 0.0%
CCCCCCCCCCCCCCCNc1nc(NCCCCCC)nc(NCCCN2CCN(C)CC2)n1 [Compound N6N15D9] | 0.1% | 0.0%
CCCCCCCCCCCCCCCCSc1nc(NCCCN2CCOCC2)nc(SCCCCCCCCCC)n1 [Compound S10S16D8] | 15.7% | 4.0%
CCCCCCCCCCCCCCSc1nc(NCCCN2CCOCC2)nc(SCCCCCCCC)n1 [Compound S8S14D8] | 17.1% | 3.4%
CCCCCCCCCCCCCCCCNc1nc(NCCCCCCCC)nc(NCCN(CC)CC)n1 [Compound N8N16D7] | 3.1% | 0.3%
CCCCCCCCCCCNc1nc(NCCCCCCCC)nc(NCCN2CCOCC2)n1 [Compound N8N11D2] | 0.0% | 0.0%
CCCCCCCCCCCCCCCNc1nc(NCCCCCCCCCCCCCCC)nc(NCCCN2CCN(C)CC2)n1 [Compound N15N15D9] | 0.4% | 0.0%
CCCCCCCCCCCCCNc1nc(NCCCCCCCCC)nc(NCCN2CCN(C)CC2)n1 [Compound N9N13D5] | 0.3% | 0.2%
CCCCCCCCCCCSc1nc(NCCN2CCOCC2)nc(SCCCCCCCCCCC)n1 [Compound S11S11D2] | 0.2% | 0.0%
CCCCCCCNc1nc(NCCCCCC)nc(NCCCN2CCN(C)CC2)n1 [Compound N6N7D9] | 0.0% | 0.0%
CCCCCCCCCCCCCCCSc1nc(NCCN(C)C)nc(SCCCCCCCCCC)n1 [Compound S10S15D1] | 6.8% | 0.0%
CCCCCCCCCNc1nc(NCCCCCCC)nc(NCCCN2CCOCC2)n1 [Compound N7N9D8] | 0.0% | 0.0%
CCCCCCCCCCCCCCCCNc1nc(NCCCCCCCCCCCCCCC)nc(NCC2CCN(C)CC2)n1 [Compound N15N16D10] | 1.5% | 0.0%
CCCCCCCCCCCCCNc1nc(NCCCCCCCCCCCCC)nc(NCCCN2CCOCC2)n1 [Compound N13N13D8] | 1.4% | 0.3%
CCCCCCCCCCCCCCCCNc1nc(NCCCCCCCCCCCCCCC)nc(NCCCN2CCN(C)CC2)n1 [Compound N15N16D9] | 2.1% | 1.7%
CCCCCCCCCCCCCCCCNc1nc(NCCCCCCCCCCCCCCCC)nc(NCCN2CCCCC2)n1 [Compound N16N16D4] | 0.9% | 0.0%
CCCCCCCCCCCSc1nc(NCCN2CCN(C)CC2)nc(SCCCCCCCCCCC)n1 [Compound S11S11D5] | 3.4% | 28.7%
CCCCCCCCCCCCCCCCNc1nc(NCCCCCCC)nc(NCCN(CC)CC)n1 [Compound N7N16D7] | 0.0% | 0.4%
CCCCCCCCCCCCCCCCCCSc1nc(NCCN2CCCCC2)nc(SCCCCCCCCCCCCCCCCCC)n1 [Compound S18S18D4] | 0.1% | 0.1%
CCCCCCCCCCCCCCCCNc1nc(NCCCCCCC)nc(NCCN2CCN(C)CC2)n1 [Compound N7N16D5] | 0.3% | 0.0%
CCCCCCCCCCCCCCCCCCNc1nc(NCCCCCCCCCCCC)nc(NCCN2CCN(C)CC2)n1 [Compound N12N18D5] | 0.0% | 1.9%
CCCCCCCCCCCCCCCSc1nc(NCCN(CC)CC)nc(SCCCCCCCCCC)n1 [Compound S10S15D7] | 7.2% | 0.0%
